Results taken from PubChem BioAssay (NCI).
“And” between values parts separate entries of the source, which are not always exact repeats. Identical values can stand only once.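 Assay format: 96-well plates, 48-hour exposure. GI50 = concentration required for 50% inhibition of growth. The concentration for full growth arrest is given as TGI.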 Where a SMILES comes first, the peptide text is derived from it. [ ]: non-standard residue; d: D form. The star is where a group is joined. ξ: configuration not given here. NMeY = CN[C@@H](Cc1ccc(O)cc1)C(=O)O; Cbz = O=C(OCc1ccccc1)*; ξA = CC(N)C(=O)O

Tests used:
Experiment in all cases: NCI-60 cell line screen, 48 h
MDA-MB-231 breast = test system: MDA-MB-231 breast
HOP-62 NSCLC = test system: HOP-62 NSCLC
A549 NSCLC = test system: A549 NSCLC
M14 melanoma = test system: M14 melanoma
SK-OV-3 ovarian = test system: SK-OV-3 ovarian

| SMILES | TGI (MDA-MB-231 breast) | TGI (HOP-62 NSCLC) | TGI (A549 NSCLC) | TGI (M14 melanoma) | TGI (SK-OV-3 ovarian) | GI50 (MDA-MB-231 breast) | GI50 (HOP-62 NSCLC) | GI50 (A549 NSCLC) | GI50 (M14 melanoma) | GI50 (SK-OV-3 ovarian) |
| --- | --- | --- | --- | --- | --- | --- | --- | --- | --- | --- |
| N#Cc1c(-c2ccccc2)cn(C(=O)c2ccccc2)c1N | > 100 µM | > 100 µM | > 100 µM | > 100 µM | > 100 µM | – | – | – | – | – |
| N#CCCC1(CCC#N)S(=O)(=O)OCCOS1(=O)=O | – | > 100 µM | > 100 µM | > 100 µM | > 100 µM | – | – | – | – | – |
| CN1C(=O)C(=Cc2ccc(Br)cc2)C(=O)N(C)C1=O | > 100 µM | > 100 µM | > 100 µM | > 100 µM | > 100 µM | – | – | – | – | – |
| Cc1cn(CC(=S)NCCc2c[nH]c3ccccc23)c(=O)[nH]c1=O | > 100 µM | > 100 µM | > 100 µM | > 100 µM | > 100 µM | – | – | – | – | – |
| N#Cc1c(C#N)c(SSc2c(C#N)c(C#N)c(N)n2-c2cccc3ccccc23)n(-c2cccc3ccccc23)c1N | 40.8 µM | 49.9 µM | 43.7 µM | 8.4 µM | 54.8 µM | – | – | – | – | – |
| CCCCCN1C(=O)C(Cc2ccccc2)N=C(c2ccc(O)cc2)c2cc(Cl)ccc21 (stereo unspecified) | 35.9 µM | 52.8 µM | 31.7 µM | 34.4 µM | 41.1 µM | – | – | – | – | – |
| COc1ccc(C[C@H]2COC(=O)[C@@H]2Cc2ccc(Br)cc2)cc1OC | 77.2 µM | > 100 µM | > 100 µM | > 89.5 µM | > 100 µM | – | – | – | – | – |
| C=CC(C)(C)NC(C(=O)N1CCC[C@H]1c1nc(-c2nc(C(=O)OCC=C(C)C)c(C)o2)c(C)o1)C(C)C (stereo partly specified) | > 100 µM | > 100 µM | > 100 µM | > 100 µM | > 100 µM | – | – | – | – | – |
| CC(=Nc1ccc(Cl)cc1)c1ccncc1 | > 100 µM | > 100 µM | > 100 µM | > 100 µM | – | – | – | – | – | – |
| CO[P@@]1(=O)O[C@@H](c2ccccc2)[C@H](O)[C@@]1(O)c1ccccc1 | > 100 µM | – | > 100 µM | > 100 µM | > 100 µM | – | – | – | – | – |
| COc1ccc2nc3c4c(nccc4c2c1)-c1ncccc1C3=O | 3.94 µM | 0.402 µM | 0.338 µM | 0.29 µM | 0.386 µM | – | – | – | – | – |
| Nc1ccc(Oc2ccc(C34CC5C6CC7(c8ccc(Oc9ccc(N)cc9)cc8)CC5C(C3)C(C7)C6C4)cc2)cc1 | > 100 µM | > 100 µM | > 100 µM | > 100 µM | – | – | – | – | – | – |
| COc1cccc(CCn2c(N)c(-c3cc(Cl)cc(Cl)c3)c3ccc([N+](=O)[O-])cc3c2=O)c1 | 61.1 µM | > 100 µM | > 100 µM | > 100 µM | > 100 µM | – | – | – | – | – |
| C=C1N(C)c2ccc(S(=O)(=O)c3ccc4c(c3)C(C)(C)C(=C)N4C)cc2C1(C)C | > 100 µM | > 100 µM | > 100 µM | > 100 µM | > 100 µM | – | – | – | – | – |
| COc1ccc(/C(C)=C2\CCCN(Cc3ccccc3)C2)cc1 | 57.9 µM | 33.6 µM | 86 µM | 36.7 µM | 80.3 µM | – | – | – | – | – |
| c1ccc2c(c1)CCN1CCc3ccccc3C1C2 (stereo unspecified) | > 100 µM | > 100 µM | > 100 µM | 82.1 µM | > 100 µM | – | – | – | – | – |
| Nc1c(F)c(F)c2c(c1F)N(CCCCCl)c1ccccc1S2 | > 100 µM | > 100 µM | > 100 µM | > 100 µM | > 100 µM | – | – | – | – | – |

| SMILES | TGI (MDA-MB-231 breast) | TGI (HOP-62 NSCLC) | TGI (A549 NSCLC) | TGI (M14 melanoma) | TGI (SK-OV-3 ovarian) | GI50 (MDA-MB-231 breast) | GI50 (HOP-62 NSCLC) | GI50 (A549 NSCLC) | GI50 (M14 melanoma) | GI50 (SK-OV-3 ovarian) |
| --- | --- | --- | --- | --- | --- | --- | --- | --- | --- | --- |
| CC(CC(=O)N1C2CC3CCC2(CS1(=O)=O)C3(C)C)[Si](C)(C)C (stereo unspecified) | > 100 µM | > 100 µM | > 100 µM | > 100 µM | – | – | – | – | – | – |
| COc1ccccc1N1CCN(S(=O)(=O)c2ccc(Cl)cc2)C1=N | > 100 µM | > 100 µM | > 100 µM | > 100 µM | > 100 µM | – | – | – | – | – |
| CC(=O)N1C(c2[nH]c3ccccc3c2Cc2ccccc2)CCN1c1ccccc1 (stereo unspecified) | > 10 µM | > 10 µM | > 10 µM | > 10 µM | > 10 µM | – | – | – | – | – |
| c1ccc2c(c1)nc1ccccn12 | – | > 100 µM | > 100 µM | > 100 µM | > 100 µM | – | – | – | – | – |
| O=S(=O)(O)c1c(Cl)c(Cl)c(O)c2ncccc12 | > 93.1 µM | 17.6 µM | 28.3 µM | 27.1 µM | 25.8 µM | – | – | – | – | – |
| CC(C)CCNC(=O)c1ccc(CNC(=O)/C=C/c2ccc3ccccc3c2)cc1 | > 100 µM | > 100 µM | > 100 µM | > 100 µM | > 100 µM | – | – | – | – | – |
| C1CSCCSCCSCCSCCS1 | > 100 µM | > 100 µM | > 100 µM | > 100 µM | > 100 µM | – | – | – | – | – |
| Cc1c2c(n3c(nc4ccccc43)c1C#N)N(c1ccc(F)cc1)CC2 | – | > 100 µM | > 100 µM | – | > 100 µM | – | – | – | – | – |
| Cc1cc2c(cc1Cl)SC(NNCCO)=NS2(=O)=O | > 100 µM | > 100 µM | – | > 100 µM | > 100 µM | – | – | – | – | – |
| CN1N=C(c2ccncc2)OC1c1cccc(F)c1 (stereo unspecified) | > 100 µM | > 100 µM | > 100 µM | > 100 µM | > 100 µM | – | – | – | – | – |
| COc1ccc(C[C@@H](C(=O)N[C@@H](C)C(N)=O)N(C)C(=O)[C@@H]2CCCN2C(=O)[C@H](CC(C)C)NC(=O)C(C)NC(=O)OCc2ccccc2)cc1 (stereo partly specified) (Cbz-[ξA]LP[NMeY](Me)A-NH2) | > 100 µM | > 100 µM | > 100 µM | > 100 µM | > 100 µM | – | – | – | – | – |
| COC(=O)CN1Cc2cc(C)cc(c2O)CN(CC(=O)OC)Cc2cc(C)cc(c2O)CN(CC(=O)OC)Cc2cc(C)cc(c2O)CN(CC(=O)OC)Cc2cc(C)cc(c2O)C1 | 50 µM and > 100 µM | 47.8 µM and > 100 µM | 50 µM and > 100 µM | 18.7 µM and 51.5 µM | 46.2 µM and > 100 µM | 34.7 µM | 23.3 µM | 46.4 µM | 17.7 µM | 35.3 µM |
| CC(C)N(C(C)C)S(=O)(=O)CC12CCC(C/C1=N\O)C2 (stereo unspecified) | > 100 µM | > 100 µM | > 100 µM | > 100 µM | > 100 µM | – | – | – | – | – |
| COC(C)=NCCC1=CCCCC1 | > 100 µM | > 100 µM | > 100 µM | > 100 µM | > 100 µM | – | – | – | – | – |
| CC(=O)Oc1ccc2c(c1)[nH]c1c3ccc(OC(C)=O)cc3oc(=O)c21 | 88.2 µM | > 100 µM | > 100 µM | > 100 µM | > 100 µM | – | – | – | – | – |
| OC1C2CCCCN2C[C@@H](O)[C@H]1O (stereo partly specified) | > 100 µM | > 100 µM | > 100 µM | > 100 µM | > 100 µM | – | – | – | – | – |
